Reference: US9757330B2, “Recipe for in-situ gel, and implant, drug delivery system formed thereby” (INDUSTRIAL TECHNOLOGY RESEARCH INSTITUTE, priority 2013, dated 2017)

Experiment: in-vitro release of risperidone from the in-situ hydrogel into PBS
Assay type: physicochemical
Conditions: agarose/urea in-situ hydrogel, Millicell insert in 7.5 ml PBS, HPLC, on the 28 day
Method: 800 μl of the stock solution was mixed with 200 μl of DI water containing dispersed risperidone (20 mg/ml). Then, 150 μl of the solution was added into 12-well Millicells and immersed the insert into 7.5 ml of PBS. The PBS solution was taken out at designated time point and replaced with fresh PBS. The concentration of risperidone was measured via HPLC. The release profile of risperidone from the in-situ hydrogel reached 86% on the 28 day (FIG. 2).

SMILES: Cc1nc2n(c(=O)c1CCN1CCC(c3noc4cc(F)ccc34)CC1)CCCC2 [risperidone]
- release of risperidone from the in-situ hydrogel: 86%
